Source: PubChem BioAssay AID588711 (The Scripps Research Institute Molecular Screening Center, 2011)
Where “and” joins values, the source holds several entries; their conditions need not be identical. Equal values may be shown once. Calls of active or inactive are those of the source. How the calls were made is not given here.

Biological target: Insulin-degrading enzyme (Homo sapiens) (UniProt P14735)
Assay: recombinant IDE inhibition, cell-free – biochemical, fluorescence polarization, counter-screen for IDE inhibitor project, late-stage follow-up (AID 588711)

Insulin-degrading enzyme (Homo sapiens), sequence (P14735 whole entry, looked up): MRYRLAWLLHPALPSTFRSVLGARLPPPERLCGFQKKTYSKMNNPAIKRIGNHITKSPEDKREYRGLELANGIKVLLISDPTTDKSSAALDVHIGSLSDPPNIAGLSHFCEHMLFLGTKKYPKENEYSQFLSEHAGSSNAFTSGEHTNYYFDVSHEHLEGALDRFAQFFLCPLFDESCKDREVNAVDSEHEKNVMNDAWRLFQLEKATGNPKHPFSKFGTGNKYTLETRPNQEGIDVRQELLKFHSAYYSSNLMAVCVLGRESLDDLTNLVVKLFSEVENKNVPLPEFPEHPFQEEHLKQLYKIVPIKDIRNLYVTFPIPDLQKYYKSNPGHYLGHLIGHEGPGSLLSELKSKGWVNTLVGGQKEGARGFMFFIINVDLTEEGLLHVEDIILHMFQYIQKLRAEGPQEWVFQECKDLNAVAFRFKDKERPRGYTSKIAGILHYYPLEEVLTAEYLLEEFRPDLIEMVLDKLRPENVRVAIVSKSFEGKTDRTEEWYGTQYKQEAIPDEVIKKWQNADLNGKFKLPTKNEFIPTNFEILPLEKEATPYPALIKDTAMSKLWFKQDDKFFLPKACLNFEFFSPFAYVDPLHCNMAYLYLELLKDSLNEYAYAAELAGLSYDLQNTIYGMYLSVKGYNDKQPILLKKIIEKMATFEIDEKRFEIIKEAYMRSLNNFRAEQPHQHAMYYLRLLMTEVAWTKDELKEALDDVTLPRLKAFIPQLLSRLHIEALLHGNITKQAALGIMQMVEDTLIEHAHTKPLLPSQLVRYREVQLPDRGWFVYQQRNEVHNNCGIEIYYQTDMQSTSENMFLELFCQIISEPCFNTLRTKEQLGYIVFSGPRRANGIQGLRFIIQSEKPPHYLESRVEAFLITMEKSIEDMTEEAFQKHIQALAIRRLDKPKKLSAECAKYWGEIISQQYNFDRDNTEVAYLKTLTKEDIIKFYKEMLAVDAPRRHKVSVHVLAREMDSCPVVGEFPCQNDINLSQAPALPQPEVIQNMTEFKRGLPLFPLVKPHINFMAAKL

Row | Compound | IC50
1 | O=C(Nc1cccc(C(F)(F)F)c1)c1csc(Cc2cccc(C(F)(F)F)c2)n1 | > 54.7 µM (inactive)
2 | O=C(Nc1cccc(C(F)(F)F)c1)c1csc(-c2ccccc2)n1 | > 54.7 µM (inactive)
3 | Cc1cccc(-c2nnc(SCc3nc4ccccc4[nH]3)n2Cc2ccco2)c1 | 7.21 µM and 6.15 µM
4 | O=C(Nc1cccc(C(F)(F)F)c1)c1csc(-c2cccc(C(F)(F)F)c2)n1 | > 54.7 µM (inactive)
5 | Cc1ccc(-c2nc(C(=O)Nc3cccc(C(F)(F)F)c3)cs2)cc1 | > 54.7 µM (inactive)
6 | Nc1c(C(=O)Nc2nccs2)sc2nc(-c3cccs3)cc(C(F)(F)F)c12 | > 18.2 µM (inactive)
7 | O=C(Nc1cccc(C(F)(F)F)c1)c1csc(-c2ccncc2)n1 | 2.8 µM
8 | O=C(Nc1cc(C(F)(F)F)cc(C(F)(F)F)c1)c1csc(-c2ccncc2)n1 | > 54.7 µM (inactive)
9 | Cc1ccc(C)c(N2C(=N)S/C(=C\c3ccc(-c4ccccc4C(=O)O)o3)C2=O)c1 | > 54.7 µM (inactive)
10 | COc1ccc(-c2nc(C(=O)Nc3cccc(C(F)(F)F)c3)cs2)cc1 | > 54.7 µM (inactive)
11 | Clc1cccc(-c2nnc(SCc3nc4ccccc4[nH]3)n2-c2ccccc2)c1 | > 54.7 µM (inactive)
12 | Clc1cccc(-c2nnc(SCc3nc4ccccc4[nH]3)n2Cc2ccco2)c1 | 2.34 µM
13 | Cn1c(=O)c(C(=O)CN2CCCc3ccccc32)c(N)n(Cc2ccccc2)c1=O | > 54.7 µM (inactive)
14 | Cc1nc(-c2cccnc2)sc1C(=O)Nc1cccc(C(F)(F)F)c1 | > 54.7 µM (inactive)

More lines, now with the values ahead:

Row | IC50 | Compound
15 | > 54.7 µM (inactive) | O=C(CSc1nnc(-c2cccc(Cl)c2)n1Cc1ccco1)c1ccc2ccccc2c1
16 | > 54.7 µM (inactive) | Cn1c(SCc2nc3ccccc3[nH]2)nnc1-c1cccc(Cl)c1
17 | > 54.7 µM (inactive) | CC(Sc1nnc(-c2cccnc2)n1-c1ccccc1F)C(=O)N1CCCc2ccccc21 (stereo not given)
18 | inactive | COc1cc(/C=C2\SC(=S)N(NC(C)=O)C2=O)ccc1OC(=O)c1ccco1
19 | > 54.7 µM (inactive) | O=C(CSc1nnc(-c2cccc(Cl)c2)n1Cc1ccco1)Nc1ccc2cn[nH]c2c1
20 | 1.71 µM | O=c1c2ccccc2sn1-c1cc(S(=O)(=O)N2CCOCC2)ccc1N1CCOCC1
21 | 8.54 µM | CCOc1ccc2[nH]c3c(N4CCN(C(=O)c5ccco5)CC4)ncnc3c2c1
22 | inactive | COc1ccc(C(=O)N2CCN(C(=O)C3COc4ccccc4O3)CC2)cc1OC (stereo not given)
23 | 5.9 µM | COc1cccc(-c2nnc(SCc3nc4ccccc4[nH]3)n2Cc2ccco2)c1
24 | > 54.7 µM (inactive) | Cc1ccc(NC(=O)CSc2nnc(-c3cccc(Cl)c3)n2Cc2ccco2)c(C)c1
25 | > 54.7 µM (inactive) | O=C(CSc1nnc(-c2cccc(Cl)c2)n1Cc1ccco1)Nc1ccc2c(c1)OCCO2
26 | 6.14 µM | Cc1c(CCC(=O)NCCCn2ccnc2)c(=O)oc2cc3oc4c(c3cc12)CCCC4
27 | > 54.7 µM (inactive) | O=C(CSc1nnc(-c2cccc(Cl)c2)n1Cc1ccco1)Nc1ccccc1C(F)(F)F
28 | inactive | O=C(C1CC1)N1CCN(c2ccnc3cc(Cl)ccc23)CC1
29 | > 54.7 µM (inactive) | COc1ccc(NC(=O)CSc2nnc(CN3CCOCC3)n2C)cc1Cl
30 | > 54.7 µM (inactive) | O=C(Nc1ccc2oc(-c3cccnc3)nc2c1)c1ccc2c(c1)OCCO2
